Assay results taken from patent publication US20080085912A1, “Isoxazole derivatives and methods of treating diseases” (Unitech Pharmaceuticals, Inc., priority 2006, published 2008).
Where “and” joins values, the source holds several entries; their conditions need not be identical. Equal values may be shown once.

Legend:
ITGB6 = assay: Gene array analysis, keratinocytes: ITGB6; type: cell-based, Human; conditions: 35 μg/ml; UVB
Protocol: (§1) Human epidermal keratinocytes were seeded into 6-well plates and grown at 37±2° C. and 5±1% CO2 using serum free Epilife media supplemented as recommended by the manufacturer. Upon reaching confluency, the media were removed and the cells were treated overnight with Epilife media containing 1% v/v each of the stock solutions above (Vehicle stock and UTR-1 stock). Final concentration was 35 μg/ml for UTR-1. Two wells in the 6-well plate were prepared for each treatment. After applying the test material the cells were incubated for 24 hours at 37±2° C. and 5±1% CO2.
(§2) At the end of the incubation period the culture media was removed via aspiration and replaced with phosphate buffered saline and the cells were then irradiated with ˜30 mJ/cm^2 of UVB radiation. After the irradiation, the phosphate buffered saline was replaced by fresh culture media and the cells were incubated overnight at 37±2° C. and 5±1% CO2. After the incubation the cell culture media was collected to measure TNF-α release by a commercial ELISA Assay kit. […] In general, (1) the fluorescence intensity of the gene marker should be greater than the background intensity, and (2) the ratio of Cy5/Cy3 (treated/untreated) fluorescence intensity needs to be greater than 1.3 or less than 0.66 to indicate a change of ±30% in gene expression.

APOBEC1 = assay: Gene array analysis, keratinocytes: APOBEC1; type: cell-based, Human; conditions: 35 μg/ml; UVB
Protocol: as §1, §2

EPHB4 = assay: Gene array analysis, keratinocytes: EPHB4; type: cell-based, Human; conditions: 35 μg/ml; UVB
Protocol: as §1, §2

TNF-α = TNF-α released from UVB-irradiated keratinocytes in vitro (ELISA); type: cell-based, Human
Protocol: 1. Vehicle stock: 50:50 v/v EtOH:PEG 600
2. UTR-1 stock: 3.5 mg/ml UTR-1 in a vehicle of 50:50 v/v EtOH:PEG 600
as §1
(§3) At the end of the incubation period the culture media was removed via aspiration and replaced with phosphate buffered saline and the cells were then irradiated with ˜30 mJ/cm^2 of UVB radiation. After the irradiation, the phosphate buffered saline was replaced by fresh culture media and the cells were incubated overnight at 37±2° C. and 5±1% CO2. After the incubation the cell culture media was collected to measure TNF-α release by a commercial ELISA Assay kit. The cells were washed once with PBS and then a trypsin/EDTA solution was added to release the cells, followed by the addition of trypsin neutralizing solution. The cells were collected and pooled into 15 ml centrifuge tubes based on their treatment and pelleted by centrifuging at 1000 RPM at 4±2° C. After removing the supernatant, the pelleted cells were lysed by adding 500 μl of guanidinium thiocyanate lysis solution to each tube and then repeatedly drawing and releasing the solution into the pipette until the cell pellet is dissolved. Total RNA was then isolated by an RNAqueous kit (Ambion). After purifying the RNA, mRNA is isolated and the converted into anti-sense RNA (aRNA). The aRNA is then labeled with a florescent probe. In this case, Cy3 (green florescent signal) is used to label the sRNA from untreated sample, while Cy5 (red fluorescent) is used to label the aRNA of treated sample. Once the aRNA is labeled and any unincorporated dye is removed from the sample, the labeled aRNA is mixed with a hybridized solution and applied to the microarray. The microarray is then hybridized overnight at 60-65° C. After hybridization, the microarray is washed to remove any unbound aRNA probe and then scanned with a microarray scanner. Criteria for evaluating changes in gene expression may vary. In general, (1) the fluorescence intensity of the gene marker should be greater than the background intensity, and (2) the ratio of Cy5/Cy3 (treated/untreated) fluorescence intensity needs to be greater than 1.3 or less than 0.66 to indicate a change of ±30% in gene expression.

JAK3 = assay: Gene array analysis, keratinocytes: JAK3; type: cell-based, Human; conditions: for Ratio of treated/control / Suppression %: 35 μg/ml, UVB
Protocol: as §1, §3

PTGER1 = assay: Gene array analysis, keratinocytes: PTGER1; type: cell-based, Human; conditions: 35 μg/ml; UVB
Protocol: as §1, §2

DEFA6 = assay: Gene array analysis, keratinocytes: DEFA6; type: cell-based, Human; conditions: 35 μg/ml; UVB
Protocol: as §1, §2

TUCAN = assay: Gene array analysis, keratinocytes: TUCAN; type: cell-based, Human; conditions: 35 μg/ml; UVB
Protocol: as §1, §2

[1] = tested on: Carrageenan-induced hind paw edema; assay: Carrageenan-induced hind paw edema test on rats; type: in vivo, SD rats; conditions: for Anti-inflammatory activity (in words): carrageenan-induced edema animal study; for Avg E % of the injected paw: group average of 5 rats; for Avg E % of the injected paw / Edema % of the injected paw: 20 mg/kg i.p. pretreatment; for Volume (ml) of the injected paw / Edema % of the injected paw: individual rats (Rat 1-5); for Volume (ml) of the injected paw: 20 mg/kg i.p. 1 h before carrageenan, 20 mg/kg
Protocol: Male/female SD rats (180-215 g) were assigned to two groups: (1) control group and (2) test group, with 5 rats in each group. UTR-1 was first dissolved in DMSO (20 mg in 0.5 ml DMSO) and then diluted with 1% CMC (carboxymethylcellulose) to make 5 ml sample preparation. One hour before the carrageenan challenge (pretreatment), 1 ml of the sample preparation was injected i.p. into a rat in a test group. This is equivalent to 20 mg/kg (1 ml×4 mg/ml×1000 g/200 g=20 mg/kg based on the average weight per rat of 200 g). The vehicle without drug was injected in the same way into animals in the control group. In order to induce inflammation, 50 μl of a 1% carrageenan solution in normal saline was injected into the right hind paw subplantar tissue. The development of paw edema was measured by a plethysmometer (Basile 7140 plethysmometer, Ugo, Varese, Italy). After the carrageenan challenge, each paw volume (ml) was measured hourly. The Edema (E %) is calculated as follows: [formula] V0=Volume (mL) of the rear right footpad before the injection of Carrageenan Vt=Volume (mL) of the rear right footpad at “t” time after the injection of Carrageenan

EFA6R = assay: Gene array analysis, keratinocytes: EFA6R; type: cell-based, Human; conditions: 35 μg/ml; UVB
Protocol: as §1, §2

MAP3K2 = assay: Gene array analysis, keratinocytes: MAP3K2; type: cell-based, Human
Protocol: as §1
as §3, with “In this case, Cy3 (green florescent signal) is used to label the sRNA from untreated sample, while Cy5 (red fluorescent) is used to label the aRNA of treated sample. Once the aRNA is labeled and any unincorporated dye is removed from the sample, the labeled aRNA is mixed with a hybridized solution and applied to the microarray. The microarray is then hybridized overnight at 60-65° C. After hybridization, the microarray is washed to remove any unbound aRNA probe and then scanned with a microarray scanner. Criteria for evaluating changes in gene expression may vary.” left out

[2] = UVB ~30 mJ/cm^2, 35 μg/ml, 24 h pretreatment
[3] = array entry MAP3K2 (homo sapien), 35 μg/ml, UVB

For `Cc1cc(C(=O)O)no1` [UTR-1, 5-methylisoxazole-3-carboxylic acid], the Ratio of treated/control (ITGB6) was 0.3, the Suppression % (ITGB6) was 70% and the Ratio of treated/control (APOBEC1) was 0.333. The Suppression % (APOBEC1) was 67%, the Ratio of treated/control (EPHB4) was 0.433 and the Suppression % (EPHB4) was 57%. The “Reduction of TNF-α secreted from stimulated keratinocyte cells (in words)” value (TNF-α) was “very effective in reducing TNF-α”, the “TNFα (pg/ml), Sample2” value (TNF-α; [2]) was 119 pg/mL and the “TNFα (pg/ml), sample1” value (TNF-α; [2]) was 120 pg/mL. For the same molecule, the “TNFα Avg.” value (TNF-α; average of n=2 wells, UVB ~30 mJ/cm^2, 35 μg/ml) was 120 pg/mL, the Ratio of treated/control (JAK3; array entry JAK3 (homo sapien)) was 0.386 and the Suppression % (JAK3; array entry JAK3 (homo sapien)) was 61%. The Ratio of treated/control (JAK3; array entry JAK3) was 0.417, the Suppression % (JAK3; array entry JAK3) was 58% and the “Gene suppression (in words)” value (JAK3; gene array analysis) was “significantly suppressed”. For the same molecule, the Ratio of treated/control (PTGER1) was 0.286, the Suppression % (PTGER1) was 71% and the Ratio of treated/control (DEFA6) was 0.38. For the same molecule, the Suppression % (DEFA6) was 62%, the Ratio of treated/control (TUCAN) was 0.333 and the Suppression % (TUCAN) was 67%. The “Anti-inflammatory activity (in words)” value [1] was “surpassingly effective in anti-inflammation”, the “Anti-inflammatory activity (in words)” value ([1]; listed as 5-methylisoxazole-3-carboxylic aicd) was “surprisingly and unexpectedly effective in anti-inflammation” and the “Avg E % of the injected paw” value ([1]; Time 0 hr) was 0.00%. The “Avg E % of the injected paw” value ([1]; Time 1 hr) was 11.90%, the “Avg E % of the injected paw” value ([1]; Time 2 hr) was 22.70% and the “Avg E % of the injected paw” value ([1]; Time 3 hr) was 37.85%. For the same molecule, the “Avg E % of the injected paw” value ([1]; Time 4 hr) was 49.89%, the “Volume (ml) of the injected paw” value ([1]; Time 0 hr) was 1.46 ml and 1.48 ml and 1.35 ml and 1.33 ml (2×) and the “Volume (ml) of the injected paw” value ([1]; Time 1 hr) was 1.77 ml and 1.47 ml and 1.50 ml (2×) and 1.53 ml. The “Volume (ml) of the injected paw” value ([1]; Time 2 hr) was 1.92 mL and 1.53 mL and 1.65 mL and 1.66 mL and 1.75 mL, the “Volume (ml) of the injected paw” value ([1]; Time 3 hr) was 2.36 mL and 1.55 mL and 1.76 mL and 2.10 mL and 1.79 mL and the “Volume (ml) of the injected paw” value ([1]; Time 4 hr) was 2.49 mL and 1.62 mL and 1.78 mL and 2.35 mL and 2.14 mL. The “Edema % of the injected paw” value ([1]; Time 0 hr) was 0.00%, the “Edema % of the injected paw” value ([1]; Time 1 hr) was 21.23% and −0.68% and 11.11% and 15.04% and 12.78% and the “Edema % of the injected paw” value ([1]; Time 2 hr) was 31.51% and 3.38% and 22.22% and 24.81% and 31.58%. For the same molecule, the “Edema % of the injected paw” value ([1]; Time 3 hr) was 61.64% and 4.73% and 30.37% and 57.89% and 34.59%, the “Edema % of the injected paw” value ([1]; Time 4 hr) was 70.55% and 9.46% and 31.85% and 76.69% and 60.90% and the Ratio of treated/control (EFA6R) was 0.375. For the same molecule, the Suppression % (EFA6R) was 63%, the Ratio of treated/control (MAP3K2; [3]) was 0.592 and the Suppression % (MAP3K2; [3]) was 40%. The “Gene suppression (in words)” value (MAP3K2; gene array analysis) was “significantly suppressed”.
